# According to patent publication US11155668B2, “Contact-killing, QAC functionalized thermoplastic polyurethane for catheter applications” (THE UNIVERSITY OF AKRON, priority 2017, dated 2021):
# Tests used:
# [1] = system: E. coli; assay: Antimicrobial testing using ISO22196 protocol on compression molded samples; type: cell-based; details: surface functionalized (covalently attached QAC) sample; FIG. 7B
# [2] = system: MRSA; assay: Contact-killing assay (adapted from ISO 22196) on allyl-TPU blade-coated samples modified with Qx-SH; type: cell-based; details: n = 1
# Procedure: (§1) To functionalize the allyl-TPU blade-coated samples with Qx-SH reagents, thiol-ene reactions were performed using the same procedure described for rhodamine-SH. Briefly, blade-coated films of allyl-TPU (250 μm thick, 2.0 cm diameter, ca. 110 mg, 20 μmol allyl) were submerged in 2 mL of an Ar purged (30 min) aqueous solution containing Qx-SH (10.0 mM) and LAP (5.0 mM), and allowed to pre-soak for 30 min under Ar. UV-treated samples were irradiated for 30 min (λ=365 nm, I=1.2 mW·cm^−2) while phys. ads. samples were kept in the absence of UV light for 30 min to control for any antimicrobial activity that is contributed by non-covalently attached QAC. Following treatment, the dye/photoinitiator solutions were drawn up and discarded, and the samples were rinsed with 5 mL of DI water (3×) then submerged in 5 mL of DI water. The samples were further rinsed with 10% EtOH (3×) and soaked in 10% EtOH for 15 min (3×), rinsing with 10% EtOH in between each soak.
# (§2) For antimicrobial testing, blade-coated samples and catheter tubing of allyl-TPU were sterilized by EtO sterilization using an Anprolene benchtop sterilizer (Anderson Products, Inc., Haw River, N.C.) following the manufacturer's protocol to deliver approximately 0.5 cc·L^−1 of EtO gas over a 12 h sterilization cycle at 35% humidity and room temperature, followed by a 48 h purge under vacuum. The bacterial strains used in this study included Staphylococcus epidermidis (ATCC 12228), Staphylococcus aureus (25923), Escherichia coli (ATCC 25922), Pseudomonas aeruginosa (ATCC 27853), Enterococcus faecalis (ATCC 29212), and methicillin-resistant Staphylococcus aureus (MRSA) (ATCC BAA-41).
# (§3) The contact-killing assay was performed on physically adsorbed (phys. ads.), and UV-treated blade-coated samples modified with a series of Qx-SH reagents using a method adapted from ISO 22196. See, International Organization for Standardization. Measurement of antibacterial activity on plastics and other non porous surfaces (ISO 22196:2011), the disclosure of which is incorporated herein by reference in its entirety. Briefly, the samples were inoculated with same day cultures of select bacteria (e.g. E. coli, S. epidermidis) in dilute nutrient media (0.2% tryptic soy broth (TSB) in 1× phosphate buffered saline (PBS)) at approximately 150 colony-forming units (CFU)·mm^−2. Generally, 35 uL of 8.5×10^5 CFU/mL cultures were dispersed across the surface of the sample using sterile polypropylene cover films (area=198 mm^2). Inoculated samples were incubated in a humidified room air incubator (36° C., ca. 80% rel. humidity) for 20 h. Following incubation, surviving cells were recovered from the samples using vigorous agitation (i.e. vortexing for 20 s in PBS). Surviving cells were enumerated via 10-fold series dilution and plating 100 μL onto tryptic soy agar (TSA), incubating overnight and then plate counting CFU. The mean CFU recovered per sample (CFU/sample) were calculated by accounting for dilutions. Internal controls samples of polypropylene and chlorhexidine treated with polypropylene were included in the assay.
# [3] = system: S. epidermidis; assay: as above; type: cell-based, Staphylococcus epidermidis (ATCC 12228); details: n = 2
# Procedure: as §1, §2, §3
# [4] = system: P. aeruginosa; assay: as above; type: cell-based, Pseudomonas aeruginosa (ATCC 27853); details: for Mean CFU/Sample Recovered, P. aeruginosa: n = 1
# Procedure: as §1, §2, §3
# [5] = system: E. coli; assay: as above; type: cell-based, Escherichia coli (ATCC 25922); details: for Mean CFU/Sample Recovered, E. coli: n = 2
# Procedure: as §1, §2
# as §3, with “Inoculated samples were incubated in a humidified room air incubator (36° C., ca. 80% rel. humidity) for 20 h.” left out
# [6] = system: E. faecalis; assay: as above; type: cell-based, Enterococcus faecalis (ATCC 29212); details: n = 1
# Procedure: as §1, §2, §3
# [7] = positive control (chlorhexidine treated polypropylene)
# [8] = UV-treated samples, negative control polypropylene 1.51 × 10^5
# [9] = phys. ads. samples, negative control polypropylene 1.51 × 10^5
# [10] = UV-treated samples, negative control polypropylene 0.93 (±0.03) × 10^5
# [11] = phys. ads. samples, negative control polypropylene 0.93 (±0.03) × 10^5
# [12] = UV-treated samples, negative control polypropylene 7.94 × 10^6
# [13] = phys. ads. samples, negative control polypropylene 7.94 × 10^6
# [14] = UV-treated samples, 24 h contact-killing assay
# [15] = UV-treated samples, negative control polypropylene 2.04 (±0.06) × 10^6
# [16] = phys. ads. samples, negative control polypropylene 2.04 (±0.06) × 10^6
# [17] = UV-treated samples, negative control polypropylene 1.70 × 10^5
# [18] = phys. ads. samples, negative control polypropylene 1.70 × 10^5
Structure (SMILES),"log reduction, activity against E. coli [1]","Mean CFU/Sample Recovered, MRSA [2, 7]","Mean CFU/Sample Recovered, S.epidermidis [3, 7]","Mean CFU/Sample Recovered, P. aeruginosa [4, 7]","Mean CFU/Sample Recovered, E. coli [5, 7]","Mean CFU/Sample Recovered, E. faecalis [6, 7]","Mean CFU/Sample Recovered, MRSA [2, 8]","Mean CFU/Sample Recovered, MRSA [2, 9]","Mean CFU/Sample Recovered, S.epidermidis [3, 10]","Mean CFU/Sample Recovered, S.epidermidis [3, 11]",reduction of P. aeruginosa ([4]; UV-treated samples),"Mean CFU/Sample Recovered, P. aeruginosa [4, 12]","Mean CFU/Sample Recovered, P. aeruginosa [4, 13]","log reduction in E. coli compared to the negative control [5, 14]","reduction in E. coli compared to the negative control [5, 14]","Mean CFU/Sample Recovered, E. coli [5, 15]","Mean CFU/Sample Recovered, E. coli [5, 16]","Mean CFU/Sample Recovered, E. faecalis [6, 17]","Mean CFU/Sample Recovered, E. faecalis [6, 18]"
CCCCCCCCCCCCCC[N+](C)(C)CCCCCCCCOC(=O)CCSSCCC(=O)OCCCCCCCC[N+](C)(C)CCCCCCCCCCCCCC.[Cl-].[Cl-] [8-Q14-S-S],6 log,–,–,–,–,–,–,–,–,–,–,–,–,–,–,–,–,–,–
"[H]/N=C(\N/C(=N/[H])NCCCCCCNC(=N)NC(=N)Nc1ccc(Cl)cc1)Nc1ccc(Cl)cc1 [Chlorhexidine, reference compound]",–,0.00 CFU/Sample,0.00 ± 0.00 CFU/Sample,0.00 CFU/Sample,0.00 ± 0.00 CFU/Sample,0.00 CFU/Sample,–,–,–,–,–,–,–,–,–,–,–,–,–
CCCCCCCCCCCC[N+](C)(C)CCCCCCCCOC(=O)CCS.[Cl-] [Q12-SH],–,–,–,–,–,–,0.00 CFU/Sample,0.00 CFU/Sample,0.00 ± 0.00 CFU/Sample,0.00 ± 0.00 CFU/Sample,complete reduction,0.00 CFU/Sample,7.24 × 10^5 CFU/Sample,6 log,99.9999%,0.00 ± 0.00 CFU/Sample,1.17 (±0.41) × 10^3 CFU/Sample,0.00 CFU/Sample,0.00 CFU/Sample
CCCCCCCCCCCCCC[N+](C)(C)CCCCCCCCOC(=O)CCS.[Cl-] [Q14-SH],–,–,–,–,–,–,1.00 × 10^2 CFU/Sample,0.00 CFU/Sample,0.00 ± 0.00 CFU/Sample,0.00 ± 0.00 CFU/Sample,–,5.25 × 10^6 CFU/Sample,4.79 × 10^6 CFU/Sample,–,–,6.61 (±0.01) × 10^5 CFU/Sample,6.03 (±0.03) × 10^5 CFU/Sample,0.00 CFU/Sample,0.00 CFU/Sample
